According to publication PMC11555526, “Development of 2-Aminoadenine-Based Proteolysis-Targeting Chimeras (PROTACs) as Novel Potent Degraders of Monopolar Spindle 1 and Aurora Kinases” (ACS Pharmacology & Translational Science, 2024):
Read-outs that look alike come from different tables or passages of the source.

Assays:
[1] = biological target: T1, TTK (MV4-11^HiBiT-TTK cells) (Homo sapiens, UniProt P33981); test: HiBiT assay, TTK degradation; format: cell-based; parameters: key to Dmax (maximal degradation) TTK: compounds with degradation less than 15% reported as “inactive”; settings: 6 h treatment, MV4-11^HiBiT-TTK cells; for DC50: read-out: DC50 (half-maximal degradation concentration) TTK; for Dmax: read-out: Dmax (maximal degradation) TTK
T1 construct: expressed in transfected cells; host or cells: MV4-11, lentiviral transduction (pRRL-PGK-HiBiT entry vector)
T1 sequence (P33981 1-857): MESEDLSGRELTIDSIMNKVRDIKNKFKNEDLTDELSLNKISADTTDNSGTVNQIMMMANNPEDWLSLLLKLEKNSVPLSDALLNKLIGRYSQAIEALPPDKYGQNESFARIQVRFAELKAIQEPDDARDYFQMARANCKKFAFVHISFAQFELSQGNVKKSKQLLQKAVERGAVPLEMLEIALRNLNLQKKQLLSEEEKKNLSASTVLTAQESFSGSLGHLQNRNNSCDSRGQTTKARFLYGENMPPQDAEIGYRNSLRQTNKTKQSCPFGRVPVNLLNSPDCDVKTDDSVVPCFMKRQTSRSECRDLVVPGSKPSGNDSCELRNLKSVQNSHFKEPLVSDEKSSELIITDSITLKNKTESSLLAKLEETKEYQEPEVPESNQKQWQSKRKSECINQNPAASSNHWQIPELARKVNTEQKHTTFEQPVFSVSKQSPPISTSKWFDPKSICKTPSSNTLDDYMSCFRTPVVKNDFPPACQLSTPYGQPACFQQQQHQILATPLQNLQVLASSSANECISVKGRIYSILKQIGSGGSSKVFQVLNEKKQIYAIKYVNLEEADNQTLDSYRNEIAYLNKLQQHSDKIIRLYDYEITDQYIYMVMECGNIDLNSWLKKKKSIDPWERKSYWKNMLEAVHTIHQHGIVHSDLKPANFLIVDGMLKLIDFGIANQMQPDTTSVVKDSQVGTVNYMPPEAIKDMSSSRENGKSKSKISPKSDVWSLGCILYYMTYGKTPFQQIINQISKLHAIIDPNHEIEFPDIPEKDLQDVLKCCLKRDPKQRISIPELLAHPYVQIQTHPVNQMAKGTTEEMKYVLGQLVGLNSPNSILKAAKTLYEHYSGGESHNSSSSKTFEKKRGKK
Experimental: (§1) The effects of the synthesized compounds on AURKA, AURKB, and TTK mitotic kinases were then assessed in cellular systems. For this, HiBiT cell lines were generated for all three mitotic kinases. A small 11 amino acid peptide fragment of luciferase (HiBiT) was fused to the coding sequence of the proteins and stably transduced in the MV4-11 cell line (MV4-11^AURKA-HiBiT, MV4-11^AURKB-HiBiT, and MV4-11^HiBiT-TTK).
(§2) The stable cell lines MV4-11^AURKA-HiBiT, MV4-11^AURKB-HiBiT, and MV4-11^HiBiT-TTK cells were generated by lentiviral infection. Lentivirus was produced using the respective HiBiT vector, plasmids psPAX2, and pMD2.G in HEK293 cells. The virus supernatant was filtered and MV4-11 cells were doubly infected with the supernatant. The cells were selected after 48 h of infection until the control cells were dead to get the stable cell line.
(§3) The cells stably expressing HiBiT-tagged protein were seeded into 96-well plates and treated with serial dilutions of compounds for the indicated time points. At the end point, the assay was performed using the Nano-Glo HiBiT Lytic Detection System (Promega) according to the manufacturer’s instruction. Luminescence was measured on a GloMax 96 Microplate Luminometer (Promega) or a Tecan Spark Multiplate reader (Tecan). DC50 was calculated using concentrations showing sigmoidal behavior with the dose–response (four parameters) equation in Prism (GraphPad).

[2] = biological target: T2, AURKA (MV4-11^AURKA-HiBiT cells) (Homo sapiens, UniProt O14965); test: HiBiT assay, AURKA degradation; format: cell-based; parameters: key to Dmax (maximal degradation) AURKA: compounds with degradation less than 15% reported as “inactive”; settings: 6 h treatment, MV4-11^AURKA-HiBiT cells; for DC50: read-out: DC50 (half-maximal degradation concentration) AURKA; for Dmax: read-out: Dmax (maximal degradation) AURKA
T2 construct: expressed in transfected cells; host or cells: MV4-11, lentiviral transduction
T2 sequence (O14965 1-403): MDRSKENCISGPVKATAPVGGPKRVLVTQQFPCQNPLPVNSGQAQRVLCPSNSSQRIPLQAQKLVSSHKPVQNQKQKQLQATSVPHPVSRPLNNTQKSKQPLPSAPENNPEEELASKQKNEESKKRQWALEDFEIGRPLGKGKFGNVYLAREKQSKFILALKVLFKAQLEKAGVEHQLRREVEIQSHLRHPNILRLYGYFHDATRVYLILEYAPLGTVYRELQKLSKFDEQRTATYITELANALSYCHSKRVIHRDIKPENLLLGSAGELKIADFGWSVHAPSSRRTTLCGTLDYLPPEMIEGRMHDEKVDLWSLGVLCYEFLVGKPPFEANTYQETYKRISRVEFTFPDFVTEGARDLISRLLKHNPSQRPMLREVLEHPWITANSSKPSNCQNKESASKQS
Experimental: as §1, §2, §3

[3] = biological target: T3, AURKB (MV4-11^AURKB-HiBiT cells) (Homo sapiens, UniProt Q96GD4); test: HiBiT assay, AURKB degradation; format: cell-based; parameters: key to Dmax (maximal degradation) AURKB: compounds with degradation less than 15% reported as “inactive”; settings: 6 h treatment; for DC50: read-out: DC50 (half-maximal degradation concentration) AURKB; for Dmax: read-out: Dmax (maximal degradation) AURKB
T3 construct: expressed in transfected cells; host or cells: MV4-11, lentiviral transduction (pRRL-PGK vector)
Experimental: as §1, §2, §3

MV4-11 cells (naive) = test: alamarBlue cell viability assay; format: cell-based, human; settings: 72 h treatment, MV4-11 cells (naive); for EC50: read-out: EC50 (concentration that decreases cell viability by 50%)
Experimental: Finally, to study the effect of the compounds on cancer cell survival, MV4-11 cells were treated with various concentrations of the chimeras and the cell viability was assessed after 72 h. […] As opposed to the parent inhibitor MPS1-IN-3, its derivatives except 40 were not cytotoxic (Figure S7B, Table 5). […] In addition, most of the SF1-based derivatives affected the viability of MV4-11 cells in nanomolar concentrations (Table 5).
For the alamarBlue cell viability assay, cells were seeded in 96-well plates and treated with indicated concentrations of the compounds or vehicle. A few hours before the experimental end point (72 h, unless otherwise stated), the cells were incubated with the alamarBlue reagent. Finally, fluorescence (excitation: 550 nm and emission: 600 nm) or absorbance (570 nm with reference at 600 nm) was measured on a Tecan Spark Multiplate reader (Tecan).

AURKB = biological target: T4, AURKB (Homo sapiens, UniProt Q96GD4); test: Immunoblot of AURKB in naive MV4-11 cells; format: cell-based; settings: 6 h, 0.1 µM
T4 construct: endogenous in cells; host or cells: naive MV4-11
Experimental: The cells were treated with compounds or vehicle for indicated time points and lysed in RIPA lysis buffer (50 mM HEPES pH 7.9, 140 mM NaCl, 1 mM EDTA, 1% Triton X-100, 0.1% SDS, 0.1% sodium deoxycholate) containing protease and phosphatase inhibitors (Sigma) for 20 min at 4 °C. Cell lysates were cleared by centrifugation, and protein concentration was determined with bicinchoninic acid assay. Equal amounts of protein per sample were separated by Bis-Tris-PAGE and transferred to PVDF membranes (Millipore). The membranes were blocked with 5% (w/v) nonfat dry milk in TBS-T [20 mM Tris–HCl, pH 7.5, 150 mM NaCl, 0.1% (v/v) Tween-20] for 1 h at room temperature and incubated with primary antibody at 4 °C overnight. Visualization was carried out using horseradish peroxidase (HRP)-labeled secondary antibodies and detected using a chemiluminescent HRP substrate (Millipore) in LAS3000 or LAS4000 mini (Fujifilm). Vinculin, GAPDH, or B-actin were used as a loading control. The loading control was probed along with the target antibody by cutting the membrane. For targets with similar molecular weights, the samples were run in duplicate and probed with their respective loading controls, although only one control was shown in the figure for all targets. The signal was quantified using ImageJ or Image Studio Lite against the corresponding loading controls. Antibodies used in this study were as follows: Aurora A/AIK (Cell Signaling Technology, 3092), Aurora B (Bethyl Laboratories, A300–431A), TTK (Santa Cruz Biotechnology, sc-56968), GAPDH (Cell Signaling Technology, 2118), B-Actin (Sigma, A5441), and Vinculin (Sigma, V9131).
α GAPDH α Vinculin α B-Actin
Figure S2: Cellular degradation studies of SF1-based compounds. […]
Immunoblots of TTK and AURKB. Naive MV4-11 cells were treated with indicated concentration of 44 or 47 G)
(E), 18 (F), and 14 or 20 (G) for 6 h and compared with vehicle treated cells. […]
All HiBiT data are represented as a mean ±s.d. from n=2 replicates. […]

T3 sequence (Q96GD4 1-345 isoform Q96GD4-5): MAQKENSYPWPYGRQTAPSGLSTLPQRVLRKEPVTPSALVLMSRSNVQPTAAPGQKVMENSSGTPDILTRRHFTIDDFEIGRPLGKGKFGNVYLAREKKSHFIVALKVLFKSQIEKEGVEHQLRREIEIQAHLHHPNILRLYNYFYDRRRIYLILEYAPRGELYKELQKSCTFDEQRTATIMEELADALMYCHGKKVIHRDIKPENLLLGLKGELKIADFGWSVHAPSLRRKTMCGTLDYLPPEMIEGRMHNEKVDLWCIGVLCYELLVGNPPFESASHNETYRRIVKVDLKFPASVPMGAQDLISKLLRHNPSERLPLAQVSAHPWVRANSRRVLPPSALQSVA
T4 sequence (Q96GD4 whole entry): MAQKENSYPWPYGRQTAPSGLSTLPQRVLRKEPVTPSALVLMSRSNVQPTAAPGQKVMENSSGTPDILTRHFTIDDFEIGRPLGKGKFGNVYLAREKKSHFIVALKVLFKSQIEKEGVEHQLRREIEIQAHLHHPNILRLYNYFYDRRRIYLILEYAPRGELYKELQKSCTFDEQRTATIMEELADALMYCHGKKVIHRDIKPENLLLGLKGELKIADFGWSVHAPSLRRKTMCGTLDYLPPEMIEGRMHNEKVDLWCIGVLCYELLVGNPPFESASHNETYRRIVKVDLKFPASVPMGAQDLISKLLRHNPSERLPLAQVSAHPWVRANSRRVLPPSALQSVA

Row | Structure (SMILES) | Dmax (maximal degradation) TTK [1] | Dmax (maximal degradation) AURKA [2] | DC50 [2] [nM] | Dmax (maximal degradation) AURKB [3] | DC50 [3] [nM] | EC50 (MV4-11 cells (naive)) [nM] | relative AURKB level (immunoblot quantification, vehicle = 1.00) (AURKB) | DC50 [1] [nM] | Dmax [1] [%] | Dmax [2] [%] | Dmax [3] [%] | EC50 (MV4-11 cells (naive); Homo sapiens) [nM] | DC50 (half-maximal degradation concentration) TTK [1] | DC50 (half-maximal degradation concentration) AURKA [2] | DC50 (half-maximal degradation concentration) AURKB [3] | EC50 (concentration that decreases cell viability by 50%) (MV4-11 cells (naive))
1 | Cc1ncsc1-c1ccc(CNC(=O)[C@@H]2C[C@@H](O)CN2C(=O)[C@@H](NC(=O)CCC(=O)NCC(=O)N2CCN(c3ccc(Nc4nc(Nc5ccccc5S(=O)(=O)C(C)C)c5nc[nH]c5n4)cc3)CC2)C(C)(C)C)cc1 [Compound 47] | inactive | 21.70% | – | 20.20% | – | – | 1.00 | – | – | – | – | – | – (compounds with degradation less than 25% were not calculated and reported as “–”) | – (compounds with degradation less than 25% were not calculated and reported as “–”) | – (compounds with degradation less than 25% were not calculated and reported as “–”) | — (compounds with decrease of cell viability less than 50% were not calculated and reported as “—”)
2 | Cc1ncsc1-c1ccc(CNC(=O)[C@@H]2C[C@H](O)CN2C(=O)[C@@H](NC(=O)COCCOCC(=O)N2CCN(c3ccc(Nc4nc(Nc5ccccc5S(=O)(=O)C(C)C)c5nc[nH]c5n4)cc3)CC2)C(C)(C)C)cc1 [Compound 51] | 73.95% | inactive | – | 44.00% | 1160 | 421 | – | 993 | – | – | – | – | – | – (compounds with degradation less than 25% were not calculated and reported as “–”) | – | –
3 | Cc1ncsc1-c1ccc(CNC(=O)[C@@H]2C[C@@H](O)CN2C(=O)[C@@H](NC(=O)CCC(=O)NCCNC(=O)CCC(=O)N2CCN(c3ccc(Nc4nc(NC5CCCCC5)c5nc[nH]c5n4)cc3)CC2)C(C)(C)C)cc1 [Compound 55] | 28.40% | 28.30% | 9840 | inactive | – | 6910 | – | 5650 | – | – | – | – | – | – | – (compounds with degradation less than 25% were not calculated and reported as “–”) | –
4 | Cc1ncsc1-c1ccc(CNC(=O)[C@@H]2C[C@@H](O)CN2C(=O)[C@@H](NC(=O)CCC(=O)NCCCNC(=O)CCC(=O)N2CCN(c3ccc(Nc4nc(NC5CCCCC5)c5nc[nH]c5n4)cc3)CC2)C(C)(C)C)cc1 [Compound 56] | 34.20% | 39.50% | 6500 | 29.10% | 2560 | 6820 | – | 1890 | – | – | – | – | – | – | – | –

More lines, main results first:

Row | Dmax (maximal degradation) TTK [1] | Dmax (maximal degradation) AURKA [2] | DC50 [2] [nM] | Dmax (maximal degradation) AURKB [3] | DC50 [3] [nM] | EC50 (MV4-11 cells (naive)) [nM] | relative AURKB level (immunoblot quantification, vehicle = 1.00) (AURKB) | DC50 [1] [nM] | Dmax [1] [%] | Dmax [2] [%] | Dmax [3] [%] | EC50 (MV4-11 cells (naive); Homo sapiens) [nM] | Structure (SMILES) | DC50 (half-maximal degradation concentration) TTK [1] | DC50 (half-maximal degradation concentration) AURKA [2] | DC50 (half-maximal degradation concentration) AURKB [3] | EC50 (concentration that decreases cell viability by 50%) (MV4-11 cells (naive))
5 | inactive | 57.90% | 772 | 29.40% | 466 | 1980 | – | – | – | – | – | – | Cc1ncsc1-c1ccc(CNC(=O)[C@@H]2C[C@@H](O)CN2C(=O)[C@@H](NC(=O)CCCC(=O)NCC(=O)N2CCN(c3ccc(Nc4nc(Nc5ccccc5S(=O)(=O)C(C)C)c5nc[nH]c5n4)cc3)CC2)C(C)(C)C)cc1 [Compound 46] | – (compounds with degradation less than 25% were not calculated and reported as “–”) | – | – | –
6 | – | – | 274 | – | 993 | – | – | 1270 | 88.8 | 61.9 | 70.2 | 28 | CC(C)S(=O)(=O)c1ccccc1Nc1nc(Nc2ccc(N3CCNCC3)cc2)nc2[nH]cnc12 [SF1] | – | – | – | –
7 | – | – | 1930 | – | 4860 | – | – | 1750 | 29.6 | 40.1 | 40.9 | 2060 | COc1cc(N2CCNCC2)ccc1Nc1nc(Nc2ccccc2S(=O)(=O)C(C)C)c2nc[nH]c2n1 [SF2] | – | – | – | –
8 | – | – | 99.5 | – | 79.3 | – | – | 118 | 47.7 | 52.6 | 44.5 | 123 | c1nc2c(NC3CCCCC3)nc(Nc3ccc(N4CCNCC4)cc3)nc2[nH]1 [azareversine, reference compound] | – | – | – | –
